# Data: patent US4053604A (priority 1975, dated 1977)
# Entries after “also recorded” stand apart in the source; their conditions may differ.
# Columns and labels:
# [1] = anesthesia time of rats exposed to halothane anesthesia (recovery of righting reflex); type: in vivo, male albino rats (Sprague-Dawley)
# Method: (§1) The effects of Compound I on halothane-induced anesthesia were assessed using 20 rats for each dose or time interval determination. The experiments were performed on male albino rats (Sprague-Dawley) weighing from 180-220 g. A schematic representation of the apparatus used is illustrated in FIG. 1. The apparatus consists of a rectangular box made of transparent plastic (115 cm long × 28 cm high × 28 cm wide) which is divided into 4 equal chambers by perforated walls. The box rotates around a hollow axis through which gases can be delivered at several proportions from cylinders, through their respective flowmeters. An in-line halothane vaporizer is placed just before the gases reach the chambers. There is an air-tight door to every chamber through which two animals, one treated and one control, are introduced. The gases are delivered at one end of the box and suction is applied to the other end to take up the gases after flowing through the chambers. An in-line water manometer monitors the resulting pressure. This pressure is kept at 0-5 mm H2 O to make certain the gases in the anesthetic chambers remain at atmospheric pressure. The mixture of gases is delivered at a rate of 15 l/min. The inhalation anesthetic gases are delivered for ten minutes prior to the introduction of the animals into the chambers to assure an even distribution in the four chambers. The chambers rotate at four rev/min forcing the animals to tumble and allowing the experimenter to accurately time the loss and recovery of the righting reflex. Induction times are recorded as the time interval elapsed between the beginning of exposure of the animals to the gases and the moment in which they lose their righting reflex.
# (§2) Groups of control animals (four at a time) were subjected to halothane concentrations ranging from 0.5 to 2.5% in a mixture of 95% O2 -5% CO2, and the induction times thus obtained were used to calculate concentration-reponse curves. Since a certain time elapsed between putting the first and the last rat into their respective chambers, each animal was timed separately with a stopwatch. […] This intermediate concentration of halothane was then used to study the effects of increasing doses of the test compound on the induction times and anesthesia times.
# (§3) The animals were pretreated by administering the test compounds in dosages ranging from 10 to 500 μg/kg, i.v., at 5, 30, 60, 120, 240 and 360 minutes prior to their exposure to halothane. As soon as all animals lost their righting reflex, the O2 -halothane flow was discontinued and replaced by an equal flow of air. The animals were allowed to remain in the rotating chambers until they regained their righting reflex. Anesthesia times were determined as the interval between the time required to lose and the time to regain the righting reflex. Air flushing of the anesthetic chambers was performed after each determination and the entire procedure repeated with another group of animals for the determination of the effect of a new dose or concentration.
# (§4) Drugs used in this study include: droperidol, phenoperidine hydrochloride, halothane and Compound I in the form of its hydrochloride salt. Phenoperidine hydrochloride and Compound I (hydrochloride) were dissolved separately in a warm solution of 0.9% sodium chloride. Droperidol was suspended in saline with the aid of a drop ot Tween 80 (Tween 80 is a registered trademark for a complex mixture of polyoxyethylene ethers of mixed partial oleic esters of sorbitol anhydride). Dosages are expressed in this study as the salt form of the compound where applicable. When the experimental protocol called for the concomitant administration of two drugs, these were mixed in the syringe and administered intravenously. The drugs were injected in a volume of 0.1 ml/100 g body weight.
# (§5) The statistical analysis of the data was performed using Student's […]. […]
# [2] = induction time of rats exposed to halothane anesthesia (loss of righting reflex); type: in vivo, male albino rats (Sprague-Dawley)
# Method: as §1, §2, §3, §4, §5
# [3] = respiratory minute volume and mean arterial blood pressure in rats; type: in vivo; conditions: with phenoperidine, intravenously, doses substantially greater than required for NLA; in words
# [4] = as above; type: in vivo
# Method: These effects are less than those encountered with neuroleptics presently available for NLA as evidenced by laboratory experiments in rats in which these cardiovascular parameters are measured before and after the administration of Compound 1 and the neuroleptic agent droperidol, see Table 8.
# The Effect of Compound 1 and Droperidol on Respiratory Minute Volume
# and Mean Arterial Blood Pressure
# [5] = 10 μg/kg i.v., 5 min before 0.75% halothane
# [6] = 10 μg/kg i.v., 5 min before 1.0% halothane
# [7] = 10 μg/kg i.v., 5 min before 1.5% halothane
# [8] = 10 μg/kg i.v., 5 min before 2.0% halothane
# [9] = 10 μg/kg i.v., 5 min before 2.5% halothane
# [10] = 25 μg/kg i.v., 5 min before 0.75% halothane
# [11] = 25 μg/kg i.v., 5 min before 1.0% halothane
# [12] = 25 μg/kg i.v., 5 min before 1.5% halothane
# [13] = 25 μg/kg i.v., 5 min before 2.0% halothane
# [14] = 25 μg/kg i.v., 5 min before 2.5% halothane
# [15] = 50 μg/kg i.v., 5 min before 0.75% halothane
# [16] = 50 μg/kg i.v., 5 min before 1.0% halothane
# [17] = 50 μg/kg i.v., 5 min before 1.5% halothane
# [18] = 50 μg/kg i.v., 5 min before 2.0% halothane
# [19] = 50 μg/kg i.v., 5 min before 2.5% halothane
# [20] = 100 μg/kg i.v., 5 min before 0.75% halothane
# [21] = 100 μg/kg i.v., 5 min before 1.0% halothane
# [22] = 100 μg/kg i.v., 5 min before 1.5% halothane
# [23] = 100 μg/kg i.v., 5 min before 2.0% halothane
# [24] = 100 μg/kg i.v., 5 min before 2.5% halothane
# [25] = 200 μg/kg i.v., 5 min before 0.75% halothane
# [26] = 200 μg/kg i.v., 5 min before 1.0% halothane
# [27] = 200 μg/kg i.v., 5 min before 1.5% halothane
# [28] = 200 μg/kg i.v., 5 min before 2.0% halothane
# [29] = 200 μg/kg i.v., 5 min before 2.5% halothane
# [30] = 250 μg/kg i.v., 5 min before 0.75% halothane
# [31] = 250 μg/kg i.v., 5 min before 1.0% halothane
# [32] = 250 μg/kg i.v., 5 min before 1.5% halothane
# [33] = 250 μg/kg i.v., 5 min before 2.0% halothane
# [34] = 250 μg/kg i.v., 5 min before 2.5% halothane
smiles,measurement,setting,value
"CC(C)[C@@]1(O)CCN2C[C@@H]3c4ccccc4CCc4cccc(c43)[C@H]2C1 [Compound 1, (+)(4a,13b-trans)-(3-hydroxy,13b-trans)-3-isopropyl-2,- 3,4,4a,8,9,13b,14-octahydro-lH-benzo[6,7]cyclohepta[1,2,3-de]pyrido[2,1-a]isoquinolin-3-ol]","Anesthesia time, treated",[1]; [5],3.67 min
same,"Anesthesia time, treated",[1]; [6],3.16 min
same,"Anesthesia time, treated",[1]; [7],3.84 min
same,"Anesthesia time, treated",[1]; [8],4.68 min
same,"Anesthesia time, treated",[1]; [9],5.42 min
same,"Anesthesia time, treated",[1]; [10],3.78 min
same,"Anesthesia time, treated",[1]; [11],3.62 min
same,"Anesthesia time, treated",[1]; [12],4.61 min
same,"Anesthesia time, treated",[1]; [13],5.09 min
same,"Anesthesia time, treated",[1]; [14],5.26 min
same,"Anesthesia time, treated",[1]; [15],5.16 min
same,"Anesthesia time, treated",[1]; [16],4.67 min
same,"Anesthesia time, treated",[1]; [17],4.59 min
same,"Anesthesia time, treated",[1]; [18],4.49 min
same,"Anesthesia time, treated",[1]; [19],4.96 min
same,"Anesthesia time, treated",[1]; [20],6.33 min
same,"Anesthesia time, treated",[1]; [21],5.34 min
same,"Anesthesia time, treated",[1]; [22],4.79 min
same,"Anesthesia time, treated",[1]; [23],5.49 min
same,"Anesthesia time, treated",[1]; [24],5.62 min
same,"Anesthesia time, treated",[1]; [25],6.54 min
same,"Anesthesia time, treated",[1]; [26],5.37 min
same,"Anesthesia time, treated",[1]; [27],4.94 min
same,"Anesthesia time, treated",[1]; [28],5.33 min
same,"Anesthesia time, treated",[1]; [29],5.89 min
same,"Anesthesia time, treated",[1]; [30],6.26 min
same,"Anesthesia time, treated",[1]; [31],5.81 min
same,"Anesthesia time, treated",[1]; [32],5.52 min
same,"Anesthesia time, treated",[1]; [33],5.92 min
same,"Anesthesia time, treated",[1]; [34],6.37 min
same,"Anesthesia time, treated","[1]; 500 μg/kg i.v., 5 min before 1.0% halothane",5.69 min
same,increase of anesthesia time,"[1]; five minutes after i.v. administration, 1% halothane",approximately 70%
same,effect on anesthesia time,"[1]; halothane, in words",increased considerably
same,duration of anesthesia effect with added analgesic,"[1]; plus 25 μg/kg i.v. phenoperidine hydrochloride, 1% halothane (FIG. 3), in words",potentiates the duration of anesthesia effect
same,"Induction time, treated",[2]; [5],6.66 min
same,"Induction time, treated",[2]; [6],2.67 min
same,"Induction time, treated",[2]; [7],1.32 min
same,"Induction time, treated",[2]; [8],0.72 min
same,"Induction time, treated",[2]; [9],0.57 min
same,"Induction time, treated",[2]; [10],6.30 min
same,"Induction time, treated",[2]; [11],1.86 min
same,"Induction time, treated",[2]; [12],1.02 min
same,"Induction time, treated",[2]; [13],0.71 min
same,"Induction time, treated",[2]; [14],0.58 min
same,"Induction time, treated",[2]; [15],5.77 min
same,"Induction time, treated",[2]; [16],1.62 min
same,"Induction time, treated",[2]; [17],1.03 min
same,"Induction time, treated",[2]; [18],0.75 min
same,"Induction time, treated",[2]; [19],0.57 min
same,"Induction time, treated",[2]; [20],4.05 min
same,"Induction time, treated",[2]; [21],1.37 min
same,"Induction time, treated",[2]; [22],1.13 min
same,"Induction time, treated",[2]; [23],0.69 min
same,"Induction time, treated",[2]; [24],0.54 min
same,"Induction time, treated",[2]; [25],3.48 min
same,"Induction time, treated",[2]; [26],1.31 min
same,"Induction time, treated",[2]; [27],1.03 min
same,"Induction time, treated",[2]; [28],0.64 min
same,"Induction time, treated",[2]; [29],0.57 min
same,reduction of induction time,"[2]; 200 μg/kg, i.v., 1% halothane",approximately 50%
same,"Induction time, treated",[2]; [30],3.72 min
same,"Induction time, treated",[2]; [31],1.67 min
same,"Induction time, treated",[2]; [32],0.91 min
same,"Induction time, treated",[2]; [33],0.67 min
same,"Induction time, treated",[2]; [34],0.60 min
same,maximum decrease in induction time,"[2]; Compound 1 (hydrochloride) alone, i.v., 5 min before 1% halothane (FIG. 2)",45%
same,effect on induction time for the anesthetic,"[2]; administered prior to anesthetic treatment, in words, listed as Compound I",decreased considerably; also recorded: substantially reduced
same,"decrease in induction time, with phenoperidine","[2]; plus 25 μg/kg, i.v., phenoperidine hydrochloride, 1% halothane (FIG. 2)",about 65%
same,effect on respiratory depression caused by analgesic agents,[3],only slightly changed
same,Change in Mean B.P. as % of Control,[4]; 25 μg/kg,-0.83 ± 0.83 % of Control
same,Change in Minute Volume as % of Control,[4]; 25 μg/kg,+4.2 ± 1.4 % of Control
same,Change in Mean B.P. as % of Control,[4]; 100 μg/kg,-4.1 ± 2.6 % of Control
same,Change in Minute Volume as % of Control,[4]; 100 μg/kg,+6.8 ± 1.9 % of Control
same,Change in Mean B.P. as % of Control,[4]; 250 μg/kg,-8.9 ± 1.6 % of Control
same,Change in Minute Volume as % of Control,[4]; 250 μg/kg,+6.6 ± 2.7 % of Control
same,effect on respiratory minute volume,[4]; in words,only a very small increase in minute volume
same,effect on mean arterial blood pressure,"[4]; upper level of therapeutically effective neuroleptic dosages, in words",minor diminution of blood pressure
